How the values were obtained:
[1] = target: T1, Prostaglandin G/H synthase 2 (Homo sapiens) (UniProt P35354); assay: Inhibition of COX2; set-up: concentration or dose not given beside the values; settings: concentration not given here
T1 sequence (whole entry): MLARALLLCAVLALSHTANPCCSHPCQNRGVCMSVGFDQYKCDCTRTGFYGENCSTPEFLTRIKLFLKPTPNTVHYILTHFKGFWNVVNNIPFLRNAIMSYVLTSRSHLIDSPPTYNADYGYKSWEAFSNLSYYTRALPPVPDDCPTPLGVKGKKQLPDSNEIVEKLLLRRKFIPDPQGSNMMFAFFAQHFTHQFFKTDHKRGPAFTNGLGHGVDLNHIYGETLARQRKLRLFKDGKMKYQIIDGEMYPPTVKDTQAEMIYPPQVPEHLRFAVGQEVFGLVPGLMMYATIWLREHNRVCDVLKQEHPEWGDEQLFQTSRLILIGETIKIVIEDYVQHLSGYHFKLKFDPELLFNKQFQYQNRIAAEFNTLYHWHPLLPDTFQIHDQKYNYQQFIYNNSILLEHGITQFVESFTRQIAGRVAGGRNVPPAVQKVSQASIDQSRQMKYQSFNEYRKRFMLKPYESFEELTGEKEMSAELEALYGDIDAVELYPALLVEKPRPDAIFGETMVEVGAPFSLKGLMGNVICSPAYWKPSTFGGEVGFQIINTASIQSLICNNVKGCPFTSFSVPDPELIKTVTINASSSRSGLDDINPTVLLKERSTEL

[2] = target: Prostaglandin G/H synthase 1 (Homo sapiens) (UniProt P23219); assay: Inhibition of COX1; set-up: concentration or dose not given beside the values; settings: concentration not given here
Prostaglandin G/H synthase 1 (Homo sapiens), sequence (P23219 whole entry): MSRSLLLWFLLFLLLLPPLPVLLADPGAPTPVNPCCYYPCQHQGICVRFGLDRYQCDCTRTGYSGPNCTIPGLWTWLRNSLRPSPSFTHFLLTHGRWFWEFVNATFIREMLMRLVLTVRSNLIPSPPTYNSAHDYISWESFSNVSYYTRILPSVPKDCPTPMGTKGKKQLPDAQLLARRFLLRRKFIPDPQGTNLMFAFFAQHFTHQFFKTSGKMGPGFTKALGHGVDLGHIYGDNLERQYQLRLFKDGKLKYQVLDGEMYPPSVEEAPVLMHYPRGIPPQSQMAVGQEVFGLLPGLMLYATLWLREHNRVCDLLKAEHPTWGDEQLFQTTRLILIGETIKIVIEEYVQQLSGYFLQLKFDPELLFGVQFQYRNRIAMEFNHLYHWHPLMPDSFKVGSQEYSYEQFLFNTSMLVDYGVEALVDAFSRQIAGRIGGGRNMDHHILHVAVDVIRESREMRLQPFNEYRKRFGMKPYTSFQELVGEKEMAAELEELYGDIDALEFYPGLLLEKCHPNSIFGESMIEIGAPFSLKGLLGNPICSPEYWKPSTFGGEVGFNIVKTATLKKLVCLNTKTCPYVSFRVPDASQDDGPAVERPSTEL

[3] = Acute toxicity in orally dosed albino mouse after 24 hrs; type: organism-based, albino Charles-Foster; settings: in vivo, po, read-out: ALD50
Mus musculus [4] = assay: Analgesic activity in mouse assessed as protection against phenylquinone-induced writhing at 50 mg/kg, po administered 1 hr before phenylquinone challenge measured for 5 mins relative to control; type: functional
Rattus norvegicus [5] = assay: Antiinflammatory activity in albino Charles-Foster rat assessed as inhibition of carrageenan-induced paw oedema at 50 mg/kg, po measured before 1 hr and after 3 hrs of carrageenan challenge relative to control; type: functional
Rattus norvegicus [6] = assay: Antiinflammatory activity in albino Charles-Foster rat assessed as inhibition of carrageenan-induced paw oedema at 25 mg/kg, po measured before 1 hr and after 3 hrs of carrageenan challenge relative to control; type: functional
Rattus norvegicus [7] = assay: Antiinflammatory activity in albino Charles-Foster rat assessed as inhibition of carrageenan-induced paw oedema at 100 mg/kg, po measured before 1 hr and after 3 hrs of carrageenan challenge relative to control; type: functional
Mus musculus [8] = assay: Analgesic activity in mouse assessed as protection against phenylquinone-induced writhing at 25 mg/kg, po administered 1 hr before phenylquinone challenge measured for 5 mins relative to control; type: functional
Mus musculus [9] = assay: Analgesic activity in mouse assessed as protection against phenylquinone-induced writhing at 100 mg/kg, po administered 1 hr before phenylquinone challenge measured for 5 mins relative to control; type: functional
[10] = Toxicity in 24 hrs fasted Albino rat assessed as ulcerogenic activity after 8 hrs; type: organism-based; settings: in vivo, read-out: UD50
Mus musculus [11] = assay: Analgesic activity in mouse assessed as protection against phenylquinone-induced writhing at 7.5 mg/kg, po administered 1 hr before phenylquinone challenge measured for 5 mins relative to controll; type: functional
Rattus norvegicus [12] = assay: Antiinflammatory activity in albino Charles-Foster rat assessed as inhibition of carrageenan-induced paw oedema at 10 mg/kg, po measured before 1 hr and after 3 hrs of carrageenan challenge relative to control; type: functional
Mus musculus [13] = assay: Analgesic activity in mouse assessed as protection against phenylquinone-induced writhing at 10 mg/kg, po administered 1 hr before phenylquinone challenge measured for 5 mins relative to control; type: functional
Rattus norvegicus [14] = assay: Antiinflammatory activity in albino Charles-Foster rat assessed as inhibition of carrageenan-induced paw oedema at 7.5 mg/kg, po measured before 1 hr and after 3 hrs of carrageenan challenge relative to control; type: functional
Mus musculus [15] = assay: Analgesic activity in mouse assessed as protection against phenylquinone-induced writhing at 5 mg/kg, po administered 1 hr before phenylquinone challenge measured for 5 mins relative to controll; type: functional
Rattus norvegicus [16] = assay: Antiinflammatory activity in albino Charles-Foster rat assessed as inhibition of carrageenan-induced paw oedema at 5 mg/kg, po measured before 1 hr and after 3 hrs of carrageenan challenge relative to control; type: functional

Structure (SMILES)	inhibition [1] [%]	inhibition [2] [%]	LD50 at 24 h [3] [mg/kg]	Activity (Mus musculus [4]) [%]	inhibition in vivo at 50 mg/kg (Rattus norvegicus [5]) [%]	also measured
Cc1ccc(C2SCC(=O)N2c2nnc(CNc3nnc4c5ccccc5nc-4s3)s2)cc1 (stereo not given)	36.3	33.4	> 800	22.08	37	
COc1ccccc1C1SCC(=O)N1c1nnc(CNc2nnc3c4ccccc4nc-3s2)s1 (stereo not given)	38.5	33.3	> 800	22.56	31.3	
O=C1CSC(c2ccc(O)cc2)N1c1nnc(CNc2nnc3c4ccccc4nc-3s2)s1 (stereo not given)	44	34.4	> 800	9.95	25.3	
COc1ccccc1C1C(Cl)C(=O)N1c1nnc(CNc2nnc3c4ccccc4nc-3s2)s1 (stereo not given)	64.3	38.7	> 800	35	36.2	
O=C1C(Cl)C(c2ccccc2Cl)N1c1nnc(CNc2nnc3c4ccccc4nc-3s2)s1 (stereo not given)	93.3	69.1	> 800	38	28.8	inhibition in vivo at 25 mg/kg (Rattus norvegicus [6]): 28.8%; inhibition in vivo at 100 mg/kg (Rattus norvegicus [7]): 66.8%; Activity (Mus musculus [8]): 19%; Activity (Mus musculus [9]): 58%; TD50 at 8 h [10]: 133 mg/kg
Clc1ccccc1/C=N/c1nnc(CNc2nnc3c4ccccc4nc-3s2)s1	34.4	28.7	> 800	18.66	26	
CN(C)c1ccc(C2SCC(=O)N2c2nnc(CNc3nnc4c5ccccc5nc-4s3)s2)cc1 (stereo not given)	38.1	32.2	> 800	18	28.7	
O=C1C(Cl)C(c2ccccc2)N1c1nnc(CNc2nnc3c4ccccc4nc-3s2)s1 (stereo not given)	74.6	37	> 800	21	30.6	
CN(C)c1ccc(C2C(Cl)C(=O)N2c2nnc(CNc3nnc4c5ccccc5nc-4s3)s2)cc1 (stereo not given)	65.8	37.2	> 800	22.67	33.6	
Cc1ccc(C2C(Cl)C(=O)N2c2nnc(CNc3nnc4c5ccccc5nc-4s3)s2)cc1 (stereo not given)	63.6	38.4	> 800	18.76	32.2	
O=C1CSC(c2ccccc2Cl)N1c1nnc(CNc2nnc3c4ccccc4nc-3s2)s1 (stereo not given)	45.4	43.1	> 800	24.67	38.5	inhibition in vivo at 25 mg/kg (Rattus norvegicus [6]): 22.4%; inhibition in vivo at 100 mg/kg (Rattus norvegicus [7]): 44.5%; Activity (Mus musculus [8]): 12.32%; Activity (Mus musculus [9]): 36.36%; TD50 at 8 h [10]: 167 mg/kg
COc1ccc(/C=N/c2nnc(CNc3nnc4c5ccccc5nc-4s3)s2)cc1	29.4	26.2	> 800	15.67	22.4	
Cc1ccc(/C=N/c2nnc(CNc3nnc4c5ccccc5nc-4s3)s2)cc1	25.4	23.1	> 800	12.67	20.7	
C(=N\c1nnc(CNc2nnc3c4ccccc4nc-3s2)s1)/c1ccccc1	24.2	22.4	> 800	12.16	14.8	
O=C1C(Cl)C(c2ccc(Cl)cc2)N1c1nnc(CNc2nnc3c4ccccc4nc-3s2)s1 (stereo not given)	72.1	40.9	> 800	25.01	34.7	
O=C1CSC(c2ccccc2)N1c1nnc(CNc2nnc3c4ccccc4nc-3s2)s1 (stereo not given)	36.7	31.9	> 800	9.7	19.8	
Clc1ccc(/C=N/c2nnc(CNc3nnc4c5ccccc5nc-4s3)s2)cc1	33.7	27.4	> 800	16.5	26	
COc1ccc(C2SCC(=O)N2c2nnc(CNc3nnc4c5ccccc5nc-4s3)s2)cc1 (stereo not given)	40.1	34.3	> 800	10.76	28.1	
Oc1ccc(/C=N/c2nnc(CNc3nnc4c5ccccc5nc-4s3)s2)cc1	31.5	25.1	> 800	16.87	24.3	
CCCCC1C(=O)N(c2ccccc2)N(c2ccccc2)C1=O [PHENYLBUTAZONE]			> 800	32.5	36.8	inhibition in vivo at 25 mg/kg (Rattus norvegicus [6]): 26.8%; inhibition in vivo at 100 mg/kg (Rattus norvegicus [7]): 64.7%; Activity (Mus musculus [8]): 14.26%; Activity (Mus musculus [9]): 32.5%; TD50 at 8 h [10]: 54.6 mg/kg
COc1ccc2c(c1)c(CC(=O)O)c(C)n2C(=O)c1ccc(Cl)cc1 [INDOMETHACIN]					52.2	Activity (Mus musculus [11]): 59.25%; inhibition in vivo at 10 mg/kg (Rattus norvegicus [12]): 93.2%; Activity (Mus musculus [13]): 64.33%; inhibition in vivo at 7.5 mg/kg (Rattus norvegicus [14]): 63.1%; Activity (Mus musculus [15]): 41.3%; inhibition in vivo at 5 mg/kg (Rattus norvegicus [16]): 52.2%
O=C1C(Cl)C(c2ccc(O)cc2)N1c1nnc(CNc2nnc3c4ccccc4nc-3s2)s1 (stereo not given)	71.1	39.3	> 800	19.95	32.7	
COc1ccc(C2C(Cl)C(=O)N2c2nnc(CNc3nnc4c5ccccc5nc-4s3)s2)cc1 (stereo not given)	66.3	39.5	> 800	21.27	31.6	
COc1ccccc1/C=N/c1nnc(CNc2nnc3c4ccccc4nc-3s2)s1	26.7	24.1	> 800	22.23	23.2	
O=C1CSC(c2ccc(Cl)cc2)N1c1nnc(CNc2nnc3c4ccccc4nc-3s2)s1 (stereo not given)	44.1	36.5	> 800	8.78	18.2	
CN(C)c1ccc(/C=N/c2nnc(CNc3nnc4c5ccccc5nc-4s3)s2)cc1	26.4	24.2	> 800	14.28	21.4	
